Measurements as given in patent publication US20230148005A1, “MACROCYCLIC COMPOUNDS AND USES THEREOF” (THESEUS PHARMACEUTICALS, INC., priority 2020, published 2023).

How the values were obtained:
[1] = molecular target: EGFR^L858R/T790M/C^797S (Homo sapiens, UniProt P00533, C797S/L858R/T790M); test: in vitro kinase assay (HTRF KinEASE-TK kit), LTC; assay type: biochemical; conditions: kinase inhibition
Source text: (§1) Assays using an in vitro kinase assay kit (HTRF KinEASE-TK kit) can be used to study the inhibitory activity of compounds described herein with respect to EGFR mutants such as EGFR^L858R, EGFR^L58R/T790M, and EGFR^L858R/T790M/C^797S.

[2] = molecular target: EGFR^L58R/T790M (Homo sapiens, UniProt P00533, L858R/T790M); test: in vitro kinase assay (HTRF KinEASE-TK kit), LT; assay type: biochemical; conditions: kinase inhibition
Chain of EGFR^L58R/T790M (P00533 25-1210 T790M/L858R): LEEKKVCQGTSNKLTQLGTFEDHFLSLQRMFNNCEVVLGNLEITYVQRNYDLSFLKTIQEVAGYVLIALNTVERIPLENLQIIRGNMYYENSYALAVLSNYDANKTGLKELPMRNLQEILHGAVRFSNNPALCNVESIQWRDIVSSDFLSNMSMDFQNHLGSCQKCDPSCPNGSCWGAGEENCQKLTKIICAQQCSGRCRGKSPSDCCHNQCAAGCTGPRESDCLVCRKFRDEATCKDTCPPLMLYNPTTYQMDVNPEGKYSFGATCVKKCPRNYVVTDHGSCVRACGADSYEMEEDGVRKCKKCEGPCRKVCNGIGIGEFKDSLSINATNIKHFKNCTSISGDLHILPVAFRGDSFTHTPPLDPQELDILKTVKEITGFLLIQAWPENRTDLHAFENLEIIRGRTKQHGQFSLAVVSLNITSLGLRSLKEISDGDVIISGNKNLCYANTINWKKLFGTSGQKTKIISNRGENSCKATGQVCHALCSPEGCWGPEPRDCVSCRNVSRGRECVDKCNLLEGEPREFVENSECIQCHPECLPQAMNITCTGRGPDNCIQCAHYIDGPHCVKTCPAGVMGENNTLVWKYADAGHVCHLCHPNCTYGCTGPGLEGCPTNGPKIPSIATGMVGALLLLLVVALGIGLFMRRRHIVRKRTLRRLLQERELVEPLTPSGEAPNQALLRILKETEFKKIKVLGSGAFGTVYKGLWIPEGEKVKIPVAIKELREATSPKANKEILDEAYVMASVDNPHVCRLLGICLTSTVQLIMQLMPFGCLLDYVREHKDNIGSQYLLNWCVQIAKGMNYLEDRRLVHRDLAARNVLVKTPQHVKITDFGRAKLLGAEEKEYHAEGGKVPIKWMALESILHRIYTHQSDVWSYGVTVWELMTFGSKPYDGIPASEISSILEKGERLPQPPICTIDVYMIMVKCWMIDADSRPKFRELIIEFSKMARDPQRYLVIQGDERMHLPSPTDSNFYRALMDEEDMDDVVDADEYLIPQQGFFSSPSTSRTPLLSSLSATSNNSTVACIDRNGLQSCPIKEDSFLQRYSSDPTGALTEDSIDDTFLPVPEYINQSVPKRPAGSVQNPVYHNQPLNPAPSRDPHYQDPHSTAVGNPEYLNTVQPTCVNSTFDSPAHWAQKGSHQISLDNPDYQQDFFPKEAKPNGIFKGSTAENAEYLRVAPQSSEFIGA
Source text: as §1

[3] = molecular target: EGFR^L858R (Homo sapiens, UniProt P00533, L858R); test: in vitro kinase assay (HTRF KinEASE-TK kit), L; assay type: biochemical; conditions: kinase inhibition
Source text: as §1

[4] = molecular target: Ba/F3 EGFR-Del19/T790M/C797S (Homo sapiens, UniProt P00533, T790M/C797S, cells depend on it, form not given); test: Ba/F3 viability assay (CellTiter-Glo), DTC; assay type: cell-based; conditions: anti-proliferation, read-out: BaF3 DTC IC50
Chain of Ba/F3 EGFR-Del19/T790M/C797S (P00533 with tags, fused parts or gaps DEL746-750/T790M/C797S, form open): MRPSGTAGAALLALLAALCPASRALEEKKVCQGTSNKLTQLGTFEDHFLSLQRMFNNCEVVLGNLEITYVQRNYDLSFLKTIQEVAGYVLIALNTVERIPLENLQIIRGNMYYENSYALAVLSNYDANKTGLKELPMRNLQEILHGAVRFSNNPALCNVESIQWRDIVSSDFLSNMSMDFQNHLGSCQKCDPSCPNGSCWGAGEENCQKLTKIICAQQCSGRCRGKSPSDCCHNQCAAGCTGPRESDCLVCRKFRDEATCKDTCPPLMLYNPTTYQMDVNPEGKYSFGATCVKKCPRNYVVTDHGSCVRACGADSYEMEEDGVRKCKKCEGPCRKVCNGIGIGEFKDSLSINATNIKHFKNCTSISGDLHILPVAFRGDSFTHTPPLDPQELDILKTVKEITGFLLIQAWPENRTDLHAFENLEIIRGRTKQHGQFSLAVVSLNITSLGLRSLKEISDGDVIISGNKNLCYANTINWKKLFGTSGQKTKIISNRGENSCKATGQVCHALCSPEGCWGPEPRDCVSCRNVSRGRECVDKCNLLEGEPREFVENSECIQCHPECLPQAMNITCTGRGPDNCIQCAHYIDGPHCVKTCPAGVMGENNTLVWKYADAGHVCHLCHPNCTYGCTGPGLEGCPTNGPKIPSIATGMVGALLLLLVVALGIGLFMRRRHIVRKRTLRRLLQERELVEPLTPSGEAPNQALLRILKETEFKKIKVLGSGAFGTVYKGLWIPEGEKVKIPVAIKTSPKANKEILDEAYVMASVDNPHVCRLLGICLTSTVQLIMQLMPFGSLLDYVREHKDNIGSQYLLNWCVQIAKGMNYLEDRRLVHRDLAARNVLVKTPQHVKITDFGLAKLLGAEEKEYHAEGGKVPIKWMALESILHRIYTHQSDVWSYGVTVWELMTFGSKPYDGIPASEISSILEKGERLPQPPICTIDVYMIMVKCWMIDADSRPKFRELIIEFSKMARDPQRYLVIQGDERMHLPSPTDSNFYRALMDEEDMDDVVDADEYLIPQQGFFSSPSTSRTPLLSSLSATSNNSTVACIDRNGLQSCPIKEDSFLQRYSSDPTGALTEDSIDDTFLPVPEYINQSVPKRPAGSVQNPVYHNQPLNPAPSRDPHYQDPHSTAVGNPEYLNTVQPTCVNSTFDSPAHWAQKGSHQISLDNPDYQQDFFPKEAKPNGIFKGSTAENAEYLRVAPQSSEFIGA
Source text: (§2) Inhibition of cell proliferation can be studied using Ba/F3 viability assays, including the Promega CellTiter-Glo cell viability assay. This assay can be used to study the effect of compounds described herein in the following assays: (1) Ba/F3 Parental; (2) Ba/F3 EGFR-Del19/T790M; (3); Ba/F3 EGFR-Del19/C797S; and (4) Ba/F3 EGFR-Del19/T790M/C797S.

[5] = molecular target: Ba/F3 EGFR-Del19/T790M (Homo sapiens, UniProt P00533, T790M, cells depend on it, form not given); test: Ba/F3 viability assay (CellTiter-Glo), DT; assay type: cell-based; conditions: anti-proliferation, read-out: BaF3 DT IC50
Chain of Ba/F3 EGFR-Del19/T790M (P00533 with tags, fused parts or gaps DEL746-750/T790M, form open): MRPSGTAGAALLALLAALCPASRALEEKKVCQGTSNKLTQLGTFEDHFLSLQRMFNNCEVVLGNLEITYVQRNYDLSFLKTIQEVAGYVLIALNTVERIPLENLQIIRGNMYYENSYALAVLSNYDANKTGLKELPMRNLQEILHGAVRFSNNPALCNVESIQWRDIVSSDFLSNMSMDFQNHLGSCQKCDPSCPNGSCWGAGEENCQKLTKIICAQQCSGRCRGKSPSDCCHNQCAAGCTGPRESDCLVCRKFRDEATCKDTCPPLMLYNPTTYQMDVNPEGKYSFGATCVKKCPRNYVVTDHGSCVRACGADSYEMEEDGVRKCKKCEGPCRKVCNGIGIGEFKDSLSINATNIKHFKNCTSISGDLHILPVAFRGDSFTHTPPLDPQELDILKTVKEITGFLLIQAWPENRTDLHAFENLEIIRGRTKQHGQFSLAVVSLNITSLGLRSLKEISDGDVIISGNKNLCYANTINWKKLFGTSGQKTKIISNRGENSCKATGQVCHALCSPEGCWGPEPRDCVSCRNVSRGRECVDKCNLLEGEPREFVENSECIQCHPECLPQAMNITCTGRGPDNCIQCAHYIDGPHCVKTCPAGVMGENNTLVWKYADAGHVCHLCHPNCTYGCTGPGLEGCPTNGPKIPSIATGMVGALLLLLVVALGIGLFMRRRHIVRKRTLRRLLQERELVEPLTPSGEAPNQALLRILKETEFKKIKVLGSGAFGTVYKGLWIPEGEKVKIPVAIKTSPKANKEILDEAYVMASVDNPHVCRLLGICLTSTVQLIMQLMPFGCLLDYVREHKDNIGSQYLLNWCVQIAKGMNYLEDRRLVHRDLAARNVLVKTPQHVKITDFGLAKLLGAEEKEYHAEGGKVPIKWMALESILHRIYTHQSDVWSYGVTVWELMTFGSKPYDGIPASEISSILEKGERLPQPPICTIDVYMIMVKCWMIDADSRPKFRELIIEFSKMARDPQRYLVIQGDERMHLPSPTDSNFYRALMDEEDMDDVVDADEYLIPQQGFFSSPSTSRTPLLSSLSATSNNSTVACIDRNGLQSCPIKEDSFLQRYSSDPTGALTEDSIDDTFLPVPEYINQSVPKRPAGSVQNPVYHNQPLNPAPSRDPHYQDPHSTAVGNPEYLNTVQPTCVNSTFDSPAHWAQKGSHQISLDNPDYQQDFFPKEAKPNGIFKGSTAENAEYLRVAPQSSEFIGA
Source text: as §2

[6] = molecular target: Ba/F3 EGFR-Del19/C797S (Homo sapiens, UniProt P00533, C797S, cells depend on it, form not given); test: Ba/F3 viability assay (CellTiter-Glo), DC; assay type: cell-based; conditions: anti-proliferation, read-out: BaF3 DC IC50
Source text: as §2

[7] = system: Ba/F3 Parental; test: Ba/F3 viability assay (CellTiter-Glo), parental; assay type: cell-based; conditions: Mus musculus, BaF3, anti-proliferation
Source text: as §2

Chain of EGFR^L858R/T790M/C^797S (P00533 25-1210 T790M/C797S/L858R): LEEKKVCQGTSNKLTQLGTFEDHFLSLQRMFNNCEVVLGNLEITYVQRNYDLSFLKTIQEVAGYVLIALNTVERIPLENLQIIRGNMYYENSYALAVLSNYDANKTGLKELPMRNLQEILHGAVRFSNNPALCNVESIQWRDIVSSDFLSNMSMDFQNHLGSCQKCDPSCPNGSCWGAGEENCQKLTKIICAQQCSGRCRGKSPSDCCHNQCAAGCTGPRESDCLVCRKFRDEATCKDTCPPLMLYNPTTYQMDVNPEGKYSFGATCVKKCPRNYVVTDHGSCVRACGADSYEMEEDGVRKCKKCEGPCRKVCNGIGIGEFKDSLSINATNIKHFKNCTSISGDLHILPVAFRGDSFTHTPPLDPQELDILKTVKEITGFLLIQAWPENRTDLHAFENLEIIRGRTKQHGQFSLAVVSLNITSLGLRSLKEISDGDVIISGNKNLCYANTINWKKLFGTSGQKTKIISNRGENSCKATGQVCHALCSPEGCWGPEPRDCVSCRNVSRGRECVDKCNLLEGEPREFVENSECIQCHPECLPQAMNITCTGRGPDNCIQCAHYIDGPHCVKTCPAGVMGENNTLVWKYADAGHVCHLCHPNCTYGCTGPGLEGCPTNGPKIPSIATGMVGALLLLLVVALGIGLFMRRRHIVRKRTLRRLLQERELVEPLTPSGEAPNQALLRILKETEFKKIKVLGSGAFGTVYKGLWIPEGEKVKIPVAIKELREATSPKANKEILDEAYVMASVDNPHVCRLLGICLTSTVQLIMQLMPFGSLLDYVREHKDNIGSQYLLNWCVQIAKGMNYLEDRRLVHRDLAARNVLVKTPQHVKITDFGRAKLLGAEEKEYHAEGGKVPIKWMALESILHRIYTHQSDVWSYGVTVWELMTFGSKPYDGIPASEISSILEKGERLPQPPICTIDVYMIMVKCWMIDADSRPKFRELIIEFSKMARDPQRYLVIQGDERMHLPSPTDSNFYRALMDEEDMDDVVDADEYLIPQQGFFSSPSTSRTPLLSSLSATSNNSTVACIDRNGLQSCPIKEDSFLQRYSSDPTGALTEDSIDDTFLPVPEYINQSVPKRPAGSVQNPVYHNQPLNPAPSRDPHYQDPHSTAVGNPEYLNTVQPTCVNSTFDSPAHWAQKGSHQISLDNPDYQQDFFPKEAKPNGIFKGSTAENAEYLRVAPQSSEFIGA

Compound: C[C@H]1CCOc2c(cnn2C)-c2nccc(n2)Nc2cc3c(cn2)c(N2CC[C@@H](N(C)CCF)C2)nn31 [(179)]
- IC50 [1]: < 10 nM
- IC50 [2]: < 10 nM
- IC50 [3]: < 10 nM
- GI50 [4]: < 10 nM
- GI50 [5]: < 10 nM
- GI50 [6]: 10 to 100 nM
- IC50 [7]: 100 to 1000 nM

Compound: CCN(CC)CCOc1cccc(-c2nn3c4cc(ncc24)Nc2ccnc(n2)-c2cnn(C)c2OCC[C@@H]3C)c1C [(158)]
- IC50 [1]: < 10 nM
- IC50 [2]: < 10 nM
- IC50 [3]: 100 to 1000 nM
- GI50 [4]: 100 to 1000 nM
- GI50 [5]: 100 to 1000 nM
- GI50 [6]: 100 to 1000 nM
- IC50 [7]: 100 to 1000 nM

Compound: CCN(CC)CCOc1ccc(C)c(-c2nn3c4cc(ncc24)Nc2ccnc(n2)-c2cnn(C)c2OCC[C@@H]3C)c1 [(159)]
- IC50 [1]: 10 to 100 nM
- IC50 [2]: 10 to 100 nM
- IC50 [3]: 100 to 1000 nM
- GI50 [4]: 100 to 1000 nM
- GI50 [5]: 100 to 1000 nM
- GI50 [6]: 100 to 1000 nM
- IC50 [7]: 100 to 1000 nM

Compound: C[C@H]1CCOc2c(cnn2C)-c2nccc(n2)Nc2cc3c(cn2)c(-c2nn(C)cc2CCN(C)C)nn31 [(155)]
- IC50 [1]: < 10 nM
- IC50 [2]: < 10 nM
- IC50 [3]: < 10 nM
- GI50 [4]: 10 to 100 nM
- GI50 [5]: 10 to 100 nM
- GI50 [6]: 10 to 100 nM
- IC50 [7]: ≥ 1000 nM

Compound: C[C@H]1CCOc2c(cnn2C)-c2nccc(n2)Nc2cc3c(cn2)c(N2CC[C@H](N(C)CCF)C2)nn31 [(170)]
- IC50 [1]: < 10 nM
- IC50 [2]: < 10 nM
- IC50 [3]: < 10 nM
- GI50 [4]: < 10 nM
- GI50 [5]: 10 to 100 nM
- GI50 [6]: 10 to 100 nM
- IC50 [7]: 100 to 1000 nM

Compound: C[C@H]1CCOc2c(cnn2C)-c2nccc(n2)Nc2cc3c(cn2)c(-c2cccc(OCCN4CCOCC4)c2)nn31 [(145), (16S)-11,16-dimethyl-19-[3-(2-morpholinoethoxy)phenyl]-13-oxa-2,6,10,11,17,18,22,25-octazapentacyclo[15.5.2.1^3,7.0^8,12.0^20,24]pentacosa-1(22),3,5,7(25),8(12),9,18,20,23-nonaene]
- IC50 [1]: < 10 nM
- IC50 [2]: < 10 nM
- IC50 [3]: < 10 nM
- GI50 [4]: < 10 nM
- GI50 [5]: < 10 nM
- GI50 [6]: 10 to 100 nM
- IC50 [7]: 100 to 1000 nM

Compound: CC(C)n1ncc2c1OCCCC(C)n1nc(N3CCC3)c3cnc(cc31)Nc1ccnc-2n1 (stereo not shown) [(74)]
- IC50 [1]: < 10 nM
- IC50 [2]: < 10 nM
- IC50 [3]: 100 to 1000 nM
- GI50 [4]: 100 to 1000 nM
- GI50 [5]: 100 to 1000 nM
- GI50 [6]: 100 to 1000 nM
- IC50 [7]: ≥ 1000 nM

Compound: CC(C)N1CCN(Cc2ccc(-c3nn4c5cc(ncc35)Nc3ccnc(n3)-c3cnn(C)c3OCC[C@@H]4C)n2C)CC1 [(122)]
- IC50 [1]: < 10 nM
- IC50 [2]: < 10 nM
- IC50 [3]: < 10 nM
- GI50 [4]: < 10 nM
- GI50 [5]: < 10 nM
- GI50 [6]: < 10 nM
- IC50 [7]: 100 to 1000 nM

Compound: CC1CCOc2c(cnn2C)-c2nccc(n2)Nc2cc3c(cn2)c(N2CC(C(C)(C)O)C2)nn31 (stereo not shown) [(8)]
- IC50 [1]: < 10 nM
- IC50 [2]: < 10 nM
- IC50 [3]: 10 to 100 nM
- GI50 [4]: 10 to 100 nM
- GI50 [5]: 10 to 100 nM
- GI50 [6]: 10 to 100 nM
- IC50 [7]: 100 to 1000 nM

Compound: C[C@H]1CCOc2c(cnn2C)-c2nccc(n2)Nc2cc3c(cn2)c(N2CC[C@@H](CN(C)CCF)C2)nn31 [(175)]
- IC50 [1]: < 10 nM
- IC50 [2]: < 10 nM
- IC50 [3]: < 10 nM
- GI50 [4]: < 10 nM
- GI50 [5]: < 10 nM
- GI50 [6]: < 10 nM
- IC50 [7]: 10 to 100 nM

Compound: C[C@H]1CCOc2c(cnn2C)-c2nccc(n2)Nc2cc3c(cn2)c(-c2ccc(CN(C)C)n2C)nn31 [(127)]
- IC50 [1]: < 10 nM
- IC50 [2]: < 10 nM
- IC50 [3]: < 10 nM
- GI50 [4]: < 10 nM
- GI50 [5]: < 10 nM
- GI50 [6]: < 10 nM
- IC50 [7]: 100 to 1000 nM

Compound: CC1CCCOc2c(cnn2C)-c2nccc(n2)Nc2cc3c(cn2)c(-c2nnc(CN4CCN(C)CC4)o2)nn31 (stereo not shown) [(94)]
- IC50 [1]: < 10 nM
- IC50 [2]: < 10 nM
- IC50 [3]: 100 to 1000 nM
- GI50 [4]: 100 to 1000 nM
- GI50 [5]: 100 to 1000 nM
- GI50 [6]: 100 to 1000 nM
- IC50 [7]: ≥ 1000 nM

Compound: CC(C)N1CCN(CC2CCN(c3nn4c5cc(ncc35)Nc3ccnc(n3)-c3cnn(C)c3OCC[C@@H]4C)C2)CC1 (stereo partly shown) [(93)]
- IC50 [1]: < 10 nM
- IC50 [2]: < 10 nM
- IC50 [3]: < 10 nM
- GI50 [4]: < 10 nM
- GI50 [5]: < 10 nM
- GI50 [6]: < 10 nM
- IC50 [7]: 10 to 100 nM

Compound: C[C@H]1CCOc2c(cnn2C)-c2nccc(n2)Nc2cc3c(cn2)c(N2CCN(C4CC4)CC2)nn31 [(97)]
- IC50 [1]: 10 to 100 nM
- IC50 [2]: < 10 nM
- IC50 [3]: 100 to 1000 nM
- GI50 [4]: 100 to 1000 nM
- GI50 [5]: 100 to 1000 nM
- GI50 [6]: 100 to 1000 nM
- IC50 [7]: ≥ 1000 nM

Compound: CC1CCOc2ccncc2-c2nccc(n2)Nc2cc3c(cn2)c(N2CCC2)nn31 (stereo not shown) [(14), 20-(azetidin-1-yl)-17-methyl-14-oxa-2,6,10,18,19,23,26-heptazapentacyclo[16.5.2.13,7.08,13.021,25]hexacosa-1(23),3,5,7(26),8(13),9,11,19,21,24-decaene]
- IC50 [1]: < 10 nM
- IC50 [2]: < 10 nM
- IC50 [3]: < 10 nM
- GI50 [4]: < 10 nM
- GI50 [5]: < 10 nM
- GI50 [6]: < 10 nM
- IC50 [7]: 10 to 100 nM

Compound: CCn1cc(-c2nn3c4cc(ncc24)Nc2ccnc(n2)-c2cnn(C)c2OCCC3C)cc1CN1CCN(C(C)C)CC1 (stereo not shown) [(80)]
- IC50 [1]: < 10 nM
- IC50 [2]: < 10 nM
- IC50 [3]: < 10 nM
- GI50 [4]: < 10 nM
- GI50 [5]: < 10 nM
- GI50 [6]: < 10 nM
- IC50 [7]: 10 to 100 nM

Compound: CCn1cc(CN2CCN(C)CC2)cc1-c1nn2c3cc(ncc13)Nc1ccnc(n1)-c1cnn(C)c1OCCC2C (stereo not shown) [(82)]
- IC50 [1]: < 10 nM
- IC50 [2]: < 10 nM
- IC50 [3]: 100 to 1000 nM
- GI50 [4]: 10 to 100 nM
- GI50 [5]: 10 to 100 nM
- GI50 [6]: 10 to 100 nM
- IC50 [7]: 10 to 100 nM

Compound: C[C@H]1CCOc2c(cnn2C)-c2nccc(n2)Nc2cc3c(cn2)c(-c2ccn(C)c2)nn31 [(109)]
- IC50 [1]: < 10 nM
- IC50 [2]: < 10 nM
- IC50 [3]: < 10 nM
- GI50 [4]: < 10 nM
- GI50 [5]: < 10 nM
- GI50 [6]: < 10 nM
- IC50 [7]: 100 to 1000 nM

Compound: CCn1nccc1-c1nn2c3cc(ncc13)Nc1ccnc(n1)-c1cnn(C)c1OCCCC2C (stereo not shown) [(86)]
- IC50 [1]: < 10 nM
- IC50 [2]: < 10 nM
- IC50 [3]: 10 to 100 nM
- GI50 [4]: 10 to 100 nM
- GI50 [5]: 10 to 100 nM
- GI50 [6]: 10 to 100 nM
- IC50 [7]: ≥ 1000 nM

Compound: Cc1nc(-c2nn3c4cc(ncc24)Nc2ccnc(n2)-c2cnn(C)c2OCC[C@@H]3C)sc1CN1CCOCC1 [(174)]
- IC50 [1]: < 10 nM
- IC50 [2]: < 10 nM
- IC50 [3]: < 10 nM
- GI50 [4]: < 10 nM
- GI50 [5]: < 10 nM
- GI50 [6]: < 10 nM
- IC50 [7]: 100 to 1000 nM

Compound: Cc1cc(OCCN(C)C)cc(-c2nn3c4cc(ncc24)Nc2ccnc(n2)-c2cnn(C)c2OCC[C@@H]3C)c1 [(134)]
- IC50 [1]: < 10 nM
- IC50 [2]: < 10 nM
- IC50 [3]: < 10 nM
- GI50 [4]: 10 to 100 nM
- GI50 [5]: 10 to 100 nM
- GI50 [6]: 10 to 100 nM
- IC50 [7]: 100 to 1000 nM

Compound: C[C@H]1CCOc2c(cnn2C)-c2nccc(n2)Nc2cc3c(cn2)c(-c2cn(C)cn2)nn31 [(114)]
- IC50 [1]: < 10 nM
- IC50 [2]: < 10 nM
- IC50 [3]: 10 to 100 nM
- GI50 [4]: 10 to 100 nM
- GI50 [5]: 10 to 100 nM
- GI50 [6]: 10 to 100 nM
- IC50 [7]: 100 to 1000 nM
